Laboratory results taken from US20060194259A1, “Method for isolating an allosteric effector of a receptor” (priority 2002, published 2006).

What was measured:
receptor EGFP-NK2R [1] = target: T1, receptor EGFP-NK2R (UniProt P16610); assay: Reversion of the binding of NKA-Bo to EGFP-NK2R by fluorescence energy transfer; design: % al (max): maximum value observed for the increase in amplitude of the rapid dissociation rate; ns = n; other: 20 nM of NK; % al (at 10 μM); other: compou; fused on or other part: EGFP fused to the receptor as FRET donor; conditions: for IC50: read-out: IC50 (μM): concentration of compound for which a 50% reduction is observed in the binding of NKA-Bo, 20 nM of NKA-Bo, EGFP-NK2R receptor; for % bond reversion (at 10 μM): compound 10 μM
T1 sequence (P16610 1-390): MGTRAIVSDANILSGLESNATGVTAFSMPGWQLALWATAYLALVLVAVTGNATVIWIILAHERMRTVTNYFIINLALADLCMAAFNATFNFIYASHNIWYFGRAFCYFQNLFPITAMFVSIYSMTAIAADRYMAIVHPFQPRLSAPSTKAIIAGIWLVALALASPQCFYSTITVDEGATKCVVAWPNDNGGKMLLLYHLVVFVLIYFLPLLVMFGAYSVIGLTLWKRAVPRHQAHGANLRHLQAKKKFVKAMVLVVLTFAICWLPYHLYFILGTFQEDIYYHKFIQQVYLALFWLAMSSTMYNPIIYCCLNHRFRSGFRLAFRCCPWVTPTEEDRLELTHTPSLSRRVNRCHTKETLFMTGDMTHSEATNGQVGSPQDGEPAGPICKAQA
Source text: (§1) The amplitude of each relaxation is then given by the adjustment of the experimental traces.

receptor EGFP-NK2R [2] = target: T1, receptor EGFP-NK2R; assay: Dissociation kinetics of NKA-Bo bound to EGFP-NK2R by fluorescence energy transfer; format: binding; design: % al (max): maximum value observed for the increase in amplitude of the rapid dissociation rate; ns = n; other: 20 nM of NK; % al (at 10 μM); other: compou; fused on or other part: EGFP fused to the receptor as FRET donor; conditions: for % al (max): maximum value observed for the increase in amplitude of the rapid dissociation rate / EC50 / EC50 (μM): concentration of compound causing a 50% increase (relative to the maximum value) in the percentage of the amplitude of the rapid dissociation rate: Table 1, ns = not significant; for EC50: read-out: EC50 (μM): concentration of compound causing a 50% increase (relative to the maximum value) in the percentage of the amplitude of the rapid dissociation rate; for EC50 / EC50 (μM): concentration of compound causing a 50% increase (relative to the maximum value) in the percentage of the amplitude of the rapid dissociation rate: dissociation of NKA-Bo from EGFP-NK2R; for % al (at 10 μM): compound 10 μM, T = 22 ± 1 is amplitude of rapid dissociation in the absence of effector
Method: Dissociation (FIG. 4B): HEK 293 cells expressing the receptor EGFP-NK2R are put into suspension at a concentration of 1,000,000 cells/ml in Hepes physiological buffer (in mM: 137.5 NaCl; 1.25 MgCl2; 1.25 CaCl2; 6 KCl; 5.6 glucose; 10 Hepes; 0.4 NaH2PO4; 1% BSA (w/v); pH 7.4) and arranged in a 1 ml cuvette equipped with a magnetic stirrer on the cuvette holder of a SPEX fluorolog 3 spectrofluorimeter.
as §1

[3] = system: cells not expressing the EGFP-NK2R receptor; assay: Calcium response on cells not expressing the receptor; format: cell-based; conditions: Table 1
[4] = in the presence of 50 μM compound, dissociation by non-fluorescent NKA

SMILES | % al (max): maximum value observed for the increase in amplitude of the rapid dissociation rate (receptor EGFP-NK2R [2]) | % bond reversion (at 10 μM) (receptor EGFP-NK2R [1]) [%] | % al (at 10 μM) (receptor EGFP-NK2R [2]) [%] | further results
N#CCN(Cc1ccccc1)c1ncc(-c2ccccc2)s1 [compound 809, [benzyl(5-phenyl-1,3-thiazol-2-yl)amino]acetonitrile] | ≧75% |  |  | IC50 (receptor EGFP-NK2R [1]): > 100 µM; EC50 (receptor EGFP-NK2R [2]): 1 to 20 µM
N#CCN(Cc1ccccc1)Cc1c[nH]c2ccccc12 [CV1-81] |  | 15 | 22 | 
N#CCN(Cc1ccccc1)Cc1cccc(Br)c1 [CV1-84, [benzyl(3-bromobenzyl)amino]acetonitrile] |  | 4 | 25 | 
c1ccc(CNc2ncc(-c3ccccc3)s2)cc1 [F3, Benzyl-(5-phenyl-thiazol-2-yl)-amine] | 65% |  |  | EC50 (receptor EGFP-NK2R [2]): 1 to 5 µM
N#CCN(Cc1ccccc1)Cc1cccc(Cl)c1 [CV1-123] |  | 7 | 26 | 
NCCCC(NC(=O)c1ccccc1)C(=O)NC(Cc1ccccc1)C(N)=O (stereo not drawn) [G6, N-(4-amino-1-(1-carbamoyl-2-phenyl-ethylcarbamoyl)-butyl)-benzamide] | ns |  |  | IC50 (receptor EGFP-NK2R [1]): 46 µM; EC50 (μM): concentration of compound causing a 50% increase (relative to the maximum value) in the percentage of the amplitude of the rapid dissociation rate (receptor EGFP-NK2R [2]): ns; effect on the dissociation kinetics of NKA-Bo (receptor EGFP-NK2R [2]; dissociation by non-fluorescent NKA in the presence of compound): does not alter the dissociation rate; amplitude of the rapid dissociation of NKA-Bo (% of total signal) (receptor EGFP-NK2R [2]; [4]): 66%; amplitude of the slow dissociation of NKA-Bo (% of total signal) (receptor EGFP-NK2R [2]; [4]): 33%
N#CCN(Cc1ccc(Br)cc1)Cc1ccc2ccccc2c1 [CV1-93, [4-bromobenzyl(2-naphthylmethyl)amino]acetonitrile] |  | 3 | 26 | 
N#CCN(Cc1ccc(CCc2ccccc2)cc1)Cc1ccc2ccccc2c1 [CV1-135] |  | 6 | 22 | 
C#CCN(Cc1ccccc1)Cc1ccc2ccccc2c1 [compound 808, N-benzyl-N-(2-naphthylmethyl)-N-prop-2-ynylamine] | ≧70% |  |  | IC50 (receptor EGFP-NK2R [1]): > 200 µM; EC50 (receptor EGFP-NK2R [2]): 20 to 30 µM
N#CCN(Cc1ccccc1)Cc1ccc(Br)cc1 [CV1-85, [benzyl(4-bromobenzyl)amino]acetonitrile] |  | 4 | 28 | 
Cc1ccc(NC(CC(=O)c2ccccc2)c2ccccc2)nc1 (stereo not drawn) [F9, 3-(5-Methyl-pyridin-2-ylamino)-1,3-diphenyl-propan-1-one] | ns |  |  | IC50 (receptor EGFP-NK2R [1]): > 50 µM; EC50 (μM): concentration of compound causing a 50% increase (relative to the maximum value) in the percentage of the amplitude of the rapid dissociation rate (receptor EGFP-NK2R [2]): ns
N#CCN(Cc1ccccc1)Cc1cccc(Cl)c1Cl [CV1-97] |  | 15 | 34 | 
NC(=O)CN(Cc1ccccc1)Cc1ccc2ccccc2c1 [compound 807, 2-[benzyl(2-naphthylmethyl)amino]acetamide] | ≧90% |  |  | Ca Rep.: ability to evoke a calcium response on cells not expressing the EGFP-NK2R receptor [3]: +?
N#CCN(Cc1ccc2ccccc2c1)Cc1ccccc1Br [CV1-80, [(2-bromobenzyl)(2-naphthylmethyl)amino]acetonitrile] |  | 16 | 25 | 
N#CCN(Cc1ccccc1)Cc1ccc(Cl)cc1 [CV1-122] |  | 17 | 31 | 
CC(=O)NC1(c2ccccc2)CCN(CC[C@H](CN(C)C(=O)c2ccccc2)c2ccc(Cl)c(Cl)c2)CC1 [SR 48968, reference compound] |  |  |  | ratio of rapid/slow amplitudes of dissociation of NKA-Bo (receptor EGFP-NK2R [2]; each tested concentration of SR 48968): 45/55; relative amplitude of rapid dissociation (0.04 s^-1) of NKA-Bo (receptor EGFP-NK2R [2]; in the presence of 0.2, 1 and 5 nM of SR 48968): 45%
Clc1ccc(CNCc2ccc3ccccc3c2)cc1 [H6, (4-Chloro-benzyl)-naphthalen-2-ylmethyl-amine] | 80% |  |  | IC50 (receptor EGFP-NK2R [1]): > 100 µM; EC50 (receptor EGFP-NK2R [2]): 50 to 80 µM
